The text below walks through data of paper PMC8776094, “Reactive Oxygen Species Production Is Responsible for Antineoplastic Activity of Osmium, Ruthenium, Iridium and Rhodium Half-Sandwich Type Complexes with Bidentate Glycosyl Heterocyclic Ligands in Various Cancer Cell Models” (International Journal of Molecular Sciences, 2022).

For data set [1], the system named is ID8 ovarian cancer cell line. The experiment in a line: MTT reduction assay, 4 h, rapid toxicity, ID8. It counts as cell-based. The settings on record: 4 h treatment; for Maximum Inhibition (%) ID8: MTT assay, ND = not detected or cannot be calculated. The procedure: The compounds were tested between 0.001694 and 33.3333 µM, using a 4-hour-long MTT test to assess rapid toxicity and a 48-hour-long SRB assay to assess the long-term effects of the inhibition of proliferation (cytostasis). The MTT assay assesses the activity of mitochondrial complex I and detects rapid, direct toxicity, as well as indicating apoptosis and necrosis. The SRB assay measures the total protein content that is proportional to cell numbers; therefore, the assay can detect changes in cell numbers and can thus be used as a readout for cell proliferation. The SRB assay was performed after 48 h of treatment (with the exception of L428 cells, which were tested for 96 h due to their slower proliferation rate). In this setting, the SRB assay informs us of long-term changes to cell proliferation. We assessed the maximal inhibition within that concentration range, and descriptive statistics were performed. We performed a one-way ANOVA, followed by the Kruskal–Wallis test, regardless of the normal or non-normal distribution of the data. Due to the large number of significance values, the results of the significance calculations are provided in an Excel spreadsheet at https://figshare.com/s/28d14597d5041f08eb08 (accessed on 6 January 2022), among other primary data of the study. Where possible, nonlinear regression was performed on the curves to determine the IC50 values ((inhibitor) vs. response—variable slope (four parameters) method with Graphpad v8.0.1). […] In Table 5, we added the IC50 values that we determined for a set of 4 active ruthenium half-sandwich complexes we identified previously, to be used in subsequent structure-activity relationship (SAR) analyses.
ID8 cells were cultured in a high-glucose DMEM (4.5 g/L glucose) medium, supplemented with 4% fetal calf serum, 2 mM glutamine, 1% penicillin-streptomycin, and 1% ITS supplement (I3146).
The MTT reduction assay measures the activity of mitochondrial complex I and can be used to detect apoptosis and necrosis. The assay was performed similarly to the method used in [72]. Briefly, cells were plated in 96-well plates the day before the assay. Cells were treated with the compounds for 4 h, then MTT was added at 0.5 mg/mL final concentration and the cells were incubated at 37 °C in a cell incubator. The culture media were removed and the reduced MTT dye was dissolved in dimethyl-sulfoxide (DMSO) and plates were measured in a plate photometer (Thermo Scientific Multiscan GO spectrophotometer, Waltham, MA, USA) at 540 nm. On each plate, wells were designed to contain untreated/vehicle-treated cells. In the calculations, the readings for these wells were considered as 1 and all readings were expressed relative to these values.

Data set [2] concerns A2780 cells. The experiment in a line: Annexin V-propidium iodide double staining, cell death, flow cytometry. The format is cell-based. Particulars: 2 h treatment; Os-3 2.68 µM, Os-4 3.25 µM, Os-5 2.84 µM, Os-6 0.70 µM, Ir-6 1.63 µM. Here is the method:
We selected the Os-3, Os-4, Os-5, Os-6 and Ir-6 complexes for further study, based on their strong cytostatic activity on the ovarian cancer cell lines, but there was a lack of activity on primary fibroblasts. […] Similar to previous approaches, as propidium iodide or Annexin V positivity is an early feature of cell death, we treated cells for 2 h and then performed double-staining with Annexin V—propidium iodide.
The proportion of dead cells was assessed using the Annexin V–propidium iodide assay and was measured using flow cytometry with a BD FacsCalibur (BD Biosciences, Franklin Lakes, NJ, USA) instrument and the FITC Annexin V/Dead Cell Apoptosis kit (Life Technologies, Eugene, OR, USA), according to the manufacturer’s instructions, in a process similar to that in [43]. Quadrants were set, based on the FITC and PI values observed for the vehicle-treated cells.
Here, 1 × 10^6 A2780 cells were plated in 6-well plates and were treated with the corresponding complexes (Os-3 at 2.68 µM, Os-4 at 3.25 µM, Os-5 at 2.84 µM, Os-6 at 0.70 µM, Ir-6 at 1.63 µM,) and 300 µM hydrogen peroxide for 2 h. Cells were then stained with Annexin V and propidium iodide (PI), then, cells were subjected to flow cytometry as described in the Materials and Methods section. The percentage of cells in the quadrants was plotted. Data are represented as average ± SD, from three biological replicates; individual assays were performed in duplicate. Normality was tested, on all datasets. A two-step transformation was used to achieve normal distribution. Statistical significance was determined using a two-way ANOVA test; all measurement points were compared with each other. ** and *** indicate statistically significant differences between vehicle-treated (control) and treated cells ([…] or 300 µM H2O2) corresponding to the same quadrant (e.g., vehicle-treated double-negative cells vs. Os-3-treated double-negative cells) at p < 0.01 and p < 0.001, respectively.
On the technique in general: In flow cytometry, cells or beads pass a laser one at a time.

With `Cc1ccc(C(C)C)cc1.F[P-](F)(F)(F)(F)F.O=C(OCC1OC(c2nnc(-c3ccccn3)o2)C(OC(=O)c2ccccc2)C(OC(=O)c2ccccc2)C1OC(=O)c1ccccc1)c1ccccc1.[Cl][Os+]` (mixture of isomers) [Os-3], in data set [1], the “cytotoxicity on ID8 cells, MTT assay (in words)” value (“cytotoxicity on ID8 cells” below) was “cytotoxic capacity to a greater extent than on A2780 cells” and the “Maximum Inhibition (%) ID8” value is reported as 35.24%. Also, the “induction of cell death (Annexin V / propidium iodide positivity)” value in data set [2] is given as “None of the complexes induced cell death”.

As to `Cc1ccc(C(C)C)cc1.F[P-](F)(F)(F)(F)F.O=C(OCC1OC(n2cc(-c3ccccn3)nn2)C(OC(=O)c2ccccc2)C(OC(=O)c2ccccc2)C1OC(=O)c1ccccc1)c1ccccc1.[Cl][Os+]` (mixture of isomers) [Os-6], in data set [1], the “cytotoxicity on ID8 cells” value is given as “cytotoxic capacity to a greater extent than on A2780 cells” and the “Maximum Inhibition (%) ID8” value is recorded as 64.44%. The “induction of cell death (Annexin V / propidium iodide positivity)” value in data set [2] is “None of the complexes induced cell death”.

Regarding `Cc1c(C)c(C)[c-](C)c1C.F[P-](F)(F)(F)(F)F.O=C(OCC1OC(n2cc(-c3ccccn3)nn2)C(OC(=O)c2ccccc2)C(OC(=O)c2ccccc2)C1OC(=O)c1ccccc1)c1ccccc1.[Cl][Ir+2]` (mixture of isomers) [Ir-6], in data set [1], the “cytotoxicity on ID8 cells” value is on record as “mild cytotoxicity” and the “Maximum Inhibition (%) ID8” value is recorded as 62.71%. Further, the “induction of cell death (Annexin V / propidium iodide positivity)” value in data set [2] was “None of the complexes induced cell death”.

For `Cc1ccc(C(C)C)cc1.F[P-](F)(F)(F)(F)F.O=C(OCC1OC(c2nnc(-c3ccccn3)o2)C(OC(=O)c2ccccc2)C(OC(=O)c2ccccc2)C1OC(=O)c1ccccc1)c1ccccc1.[Cl][Os+]` (mixture of isomers) [Os-4], in data set [1], the “Maximum Inhibition (%) ID8” value is 22.91%. In addition, the “induction of cell death (Annexin V / propidium iodide positivity)” value in data set [2] was “None of the complexes induced cell death”.

With `Cc1ccc(C(C)C)cc1.F[P-](F)(F)(F)(F)F.O=C(OC1COC(c2nnc(-c3ccccn3)o2)C(OC(=O)c2ccccc2)C1OC(=O)c1ccccc1)c1ccccc1.[Cl][Os+]` (mixture of isomers) [Os-5], in data set [1], the “cytotoxicity on ID8 cells” value is reported as “cytotoxic capacity to a greater extent than on A2780 cells” and the “Maximum Inhibition (%) ID8” value is reported as 59.51%. In addition, the “induction of cell death (Annexin V / propidium iodide positivity)” value in data set [2] is “None of the complexes induced cell death”.
